Experimental data: patent US5905089A, “Use of sesquiterpene lactones for treatment of severe inflammatory disorders” (Board of Supervisors of Louisiana State University and …, priority 1998, dated 1999)

Experiments:
COX-2 [1] = assay: COX activity of de novo synthesized COX-2 (PGE2) in LPS-stimulated, aspirin-pretreated alveolar macrophages; format: cell-based, Rat (Sprague-Dawley); details: LPS 10 μg/ml, 16h; PGE2 from exogenous arachidonic acid; FIG. 2; read-out: IC50, inhibition of the expression of COX activity
Description: (§1) Rat (Sprague-Dawley) alveolar macrophages were collected by broncho-alveolar lavage as described by Lee et al., J. Biol. Chem., vol. 267, pp. 25934-25938 (1992). The murine macrophage cell line RAW 264.7 (ATCC no. TIB-71) was cultured in Dubecco's modified Eagle's medium (DMEM) containing 10% heat-inactivated fetal bovine serum (FBS, Intergen). For the cyclooxygenase activity assay, cells were seeded in 24 well plates, and after near-confluency, cells were treated with aspirin (250 μM) for 2.5h to inactivate endogenous cyclooxygenase. […] COX activity was determined by measuring prostaglandin E2 concentrations in cells incubated with arachidonic acid (30 μM) for 10 minutes as described in Lee et al. (1992).
(§2) Recovered COX activity in cells pretreated with aspirin reflected de novo synthesized COX-2. Alveolar macrophages pretreated with aspirin were incubated with LPS (10 μg/ml) and various concentrations of parthenolide for 16h. The activity of de novo synthesized COX-2 was determined by measuring the levels of PGE2 produced from exogenous arachidonic acid. Activity of TNFα was determined by bioassay using L929 cells as described by Aggarwal et al., J. Biol. Chem., vol. 260, pp. 2345-2354 (1985). […] Values in FIG. 2 are the means of triplicate samples for TNFα and duplicate samples for PGE2.

TNFα = assay: LPS-induced TNFα production in alveolar macrophages (bioassay using L929 cells); format: cell-based, Rat (Sprague-Dawley); details: LPS 10 μg/ml, 16h, FIG. 2
Description: as §1, §2

IL-1α [2] = assay: IL-1α protein expression in LPS-stimulated alveolar macrophages (Western blot); format: cell-based, Rat (Sprague-Dawley); details: 16h, FIG. 3A
Description: as §1
(§3) The protein levels of COX-2 and GAPDH were assessed by Western blot analysis using polyclonal antibodies as described in Lee et al. (1992). Polyclonal antibodies for IL-1α and JNK-1 were purchased from Genzyme and Santa Cruz Biotech, respectively.
In FIG. 3A, alveolar macrophages were incubated with LPS and various concentrations of parthenolide for 16h. Solubilized proteins were analyzed by COX-2, IL-1α or GAPDH immunoblotting. FIG. 3A is a representative immunoblot of more than five different analyses. Data are shown for various concentrations of both parthenolide (PTN) and herbimycin A (HER). […]

P38 = assay: Tyrosine phosphorylation of P38 in RAW 264.7 cells (antiphosphotyrosine immunoblot); format: cell-based, murine; details: 3h pretreatment, LPS 1 μg/ml 30 min; FIG. 5A
Description: as §1
(§4) This detection technique was carried out essentially as described in Chanmugan et al. (1995) using 4G10 monoclonal antiphosphotyrosine antibody (UBI) and the ECL detection system (Amersham).
(§5) Parthenolide suppressed LPS-stimulated tyrosine phosphorylation of various proteins in RAW 264.7 cells as assessed by antiphosphotyrosine immunoblot, depicted in FIG. 5A. This inhibition was correlated with the suppressed expression of COX-2 and IL-1α. […] Therefore, the extent of tyrosine phosphorylation of JNK-1 was assessed by the electrophoretic mobility shift of phosphorylated JNK-1 as shown in FIG. 5B. […]

MAPKs = assay: Tyrosine phosphorylation / activation of MAPKs in RAW 264.7 cells; format: cell-based, murine; details: 3h pretreatment (herbimycin A 0.5 μg/ml), LPS 1 μg/ml 30 min
Description: as §1, §4
(§6) Parthenolide suppressed LPS-stimulated tyrosine phosphorylation of various proteins in RAW 264.7 cells as assessed by antiphosphotyrosine immunoblot, depicted in FIG. 5A. This inhibition was correlated with the suppressed expression of COX-2 and IL-1α. RAW 264.7 cells were pretreated with parthenolide in various concentrations or with herbimycin A (0.5 μg/ml) for 3h, and then stimulated with LPS (1 μg/ml) in the presence of the inhibitors for 30 min. […] Therefore, the extent of tyrosine phosphorylation of JNK-1 was assessed by the electrophoretic mobility shift of phosphorylated JNK-1 as shown in FIG. 5B. Parthenolide inhibited tyrosine phosphorylation of JNK-1. Another protein tyrosine kinase inhibitor, herbimycin A ([…]), inhibited tyrosine phosphorylation of the MAPK subfamily.
The mechanism by which parthenolide inhibits protein tyrosine phosphorylation is not currently known. It has been speculated that the tyrosine kinase inhibitor herbimycin A inactivates p60^v-src kinase by irreversibly binding to the sulphydryl (SH) groups of p60^v-src kinase. Y. Uehara et al., Biochem. Biophys. Res. Commun., vol. 163, pp. 803-809 (1989). The inactivation by herbimycin may occur through conjugation between highly polarized double bonds in the benzoquinone moiety of herbimycin A and the SH group of sulphydryl compounds. Without wishing to be bound by this theory, the α-methylenebutyrolactone in parthenolide may interact with biological nucleophiles such as sulphydryl groups. Indeed, pretreating cells with sulphydryl compounds abrogated the inhibitory effect of parthenolide on LPS-induced activation of MAPKs as shown in FIG. 6A. In FIG. 6, RAW 264.7 cells were pretreated with parthenolide (1 μg/ml) in the presence of DTT (dithiothreitol, 100 μM), 2-ME (2-mercaptoethanol, 50 μM), or Cys (L-cysteine, 150 μM), and were then stimulated with LPS (1 μg/ml). Cells were incubated for 30 min for antiphosphotyrosine immunoblot analysis (FIG. 6A) and 8h for COX-2 and IL-1α Western blot analyses (FIG. 6B). […] Whether parthenolide inhibits protein tyrosine phosphorylation by directly inhibiting PTKs or by inhibiting other target protein(s) that affect the activity of PTKs is not currently known.

ERK-1 = assay: Kinase activity of ERK-1 in RAW 264.7 cells (in-gel kinase assay, MBP substrate); format: cell-based, murine; details: 3h pretreatment, LPS 1 μg/ml 30 min; FIG. 5
Description: as §1
This assay was performed according to the method described by Kameshita et al., Anal. Biochem., vol. 183, pp. 139-143 (1989) using myelin basic protein (MBP) as a substrate.
as §5

COX-2 [3] = assay: COX-2 expression in LPS-stimulated RAW 264.7 cells (Western blot); format: cell-based, murine; details: LPS 1 μg/ml; FIG. 5D
Description: as §1, §3, §6
(§7) The mechanism by which parthenolide inhibits protein tyrosine phosphorylation is not currently known. It has been speculated that the tyrosine kinase inhibitor herbimycin A inactivates p60^v-src kinase by irreversibly binding to the sulphydryl (SH) groups of p60^v-src kinase. Y. Uehara et al., Biochem. Biophys. Res. Commun., vol. 163, pp. 803-809 (1989). The inactivation by herbimycin may occur through conjugation between highly polarized double bonds in the benzoquinone moiety of herbimycin A and the SH group of sulphydryl compounds. Without wishing to be bound by this theory, the α-methylenebutyrolactone in parthenolide may interact with biological nucleophiles such as sulphydryl groups. Indeed, pretreating cells with sulphydryl compounds abrogated the inhibitory effect of parthenolide on LPS-induced activation of MAPKs as shown in FIG. 6A. […]

IL-1α [4] = assay: IL-1α expression in LPS-stimulated RAW 264.7 cells (Western blot); format: cell-based, murine; details: LPS 1 μg/ml; FIG. 5D
Description: as §1, §3, §6, §7

COX-2 [5] = assay: Inhibition of the expression of COX-2 in LPS-stimulated macrophages (Table 1); format: cell-based
Description: Rat (Sprague-Dawley) alveolar macrophages were collected by broncho-alveolar lavage as described by Lee et al., J. Biol. Chem., vol.
Alveolar macrophages pretreated with aspirin were incubated with LPS (10 μg/ml) and various concentrations of parthenolide for 16h. The activity of de novo synthesized COX-2 was determined by measuring the levels of PGE2 produced from exogenous arachidonic acid. Activity of TNFα was determined by bioassay using L929 cells as described by Aggarwal et al., J. Biol. Chem., vol. […] Values in FIG. 2 are the means of triplicate samples for TNFα and duplicate samples for PGE2.

## C=C1C(=O)O[C@H]2[C@H]1CC/C(C)=C/CC[C@@]1(C)O[C@@H]21 [Compound 1, Parthenolide]
COX-2 [1]
  IC50: ~800 nM
TNFα
  IC50, suppression of LPS-induced TNFα production: 0.1 µg/mL
IL-1α [2]; listed as Parthenolide
  expression of IL-1α protein: inhibited
IL-1α [2]; listed as parthenolide
  expression of IL-1α protein: dose-dependent inhibition
P38
  tyrosine phosphorylation of P38: inhibited by parthenolide in a dose-dependent manner
MAPKs
  tyrosine phosphorylation of the MAPK subfamily: most dramatic inhibition
ERK-1
  kinase activity of ERK-1: dose-dependent inhibition
COX-2 [3]
  expression of COX-2 in RAW 264.7 cells: suppressed
IL-1α [4]
  expression of IL-1α in RAW 264.7 cells: suppressed
COX-2 [5]; IC50 determined at multiple dose levels
  IC50, inhibiting the expression of COX-2: 0.2 µg/mL
COX-2 [5]; comparison among tested compounds
  inhibitory activity (COX-2 expression), in words: highest inhibitory activity
